We go through 16 compounds from patent US11466007B2, “Substituted lactams showing serotonin 5-HT receptor activity” (Sumitomo Pharma Co., Ltd., priority 2018, dated 2022).

Data set [1] in a line: Test 4: metabolic stability test in human hepatic microsome. The data set is classed as in vitro ADME. Particulars: 0.1 mg/mL microsome, 0.1 μmol/L compound, NADPH, 37° C., 30 minutes. The procedure: Test 4: Metabolic Stability Test in Human Hepatic Microsome
The stability of the present compound in human hepatic microsome metabolism was evaluated as mentioned below. Human hepatic microsome was obtained from Xenontech. Human hepatic microsome, NADPH, and each test compound were mixed in 25 mmol/L phosphate buffer solution (pH 7.4) to reach the following concentrations as shown below, and the mixture was incubated at 37° C. for 30 minutes. • Human hepatic microsome: 0.1 mg/mL • NAPDH: 3.2 mmol/L • Test compound: 0.1 μmol/L
The residual ratio of the test compound in each sample after 30 minutes was measured by LC-MS, and the metabolic stability in human hepatic microsome was calculated from the following formula. Metabolic stability in human hepatic microsome (mL/min/mg protein)=−LN(residual ratio)/30/0.1

The next data set concerns the target P-gp (MDR1) (Homo sapiens (Human), UniProt P08183). Nature of the data set: Test 9: P-gp substrate property (NFR, MDCKII and MDR1-MDCKII cells). The data set is classed as in vitro ADME. Particulars: ratio of Papp B-A/Papp A-B in MDR1-MDCKII cells to that in MDCKII cells. The procedure: Evaluation test for binding was carried out as follows with the CHO cell membrane fraction in which human target receptor was expressed. […] Each mixture was incubated at room temperature, added quickly on a glassfiber filter plate (Multiscreen FB, Millipore, Inc.), and vacuum-filtered. Radioactivity remaining on the filter was measured with a liquid scintillation counter (PerkinElmer, Inc.). Binding inhibition rate was calculated from the following formula.
NFR (Net Flux Ratio), which is an index of P-gp substrate property, can be calculated as follows. MDCKII (Madin-Darby canine kidney strain II) cells and MDR1-MDCKII cells in which MDR1 (multidrug resistance protein 1) was overexpressed were used to measure an apparent permeability coefficient (Papp A-B) from lumen (A) to basement membrane (B) and an apparent permeability coefficient (Papp B-A) from basement membrane (B) to lumen (A) of both MDCKII cells and MDR1-MDCKII cells. NFR (Net Flux Ratio) was calculated from the ratio between Ratio (Papp B-A/Papp A-B) of an apparent permeability coefficient of MDR1-MDCKII cells and Ratio of an apparent permeability coefficient of MDCKII cells.

The next data set deals with human D2 receptor (Homo sapiens (Human), UniProt P14416). Nature of the data set: Test 1: binding activity for human D2 receptor ([3H]Spiperone). The conditions noted are these: for D2 Ki/5-HT1A Ki: ratio of D2 Ki to 5-HT1A Ki; for pKi: CHO cell membrane fraction, [3H]Spiperone; for D2 Ki/5-HT2A Ki: ratio of D2 Ki to 5-HT2A Ki. The procedure: (§1) Test 1: Evaluation of Binding Activity for Human 5-HT1A Receptor, Human 5-HT2A Receptor, and Human D2 Receptor
human D2 receptor, sequence (P14416 whole entry): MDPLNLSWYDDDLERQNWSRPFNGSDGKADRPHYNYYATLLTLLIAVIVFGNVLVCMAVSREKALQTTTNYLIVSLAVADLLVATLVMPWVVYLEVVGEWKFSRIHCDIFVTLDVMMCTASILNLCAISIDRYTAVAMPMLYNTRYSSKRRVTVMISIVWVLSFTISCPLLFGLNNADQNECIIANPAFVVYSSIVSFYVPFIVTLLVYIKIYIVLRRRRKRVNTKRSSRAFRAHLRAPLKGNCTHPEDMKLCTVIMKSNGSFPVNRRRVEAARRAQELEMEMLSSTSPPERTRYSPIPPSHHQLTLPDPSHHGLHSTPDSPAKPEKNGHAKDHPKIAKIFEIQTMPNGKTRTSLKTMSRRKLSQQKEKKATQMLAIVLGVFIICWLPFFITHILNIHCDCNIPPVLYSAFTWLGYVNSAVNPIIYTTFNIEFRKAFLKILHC
(§2) Binding affinity of the present compound for human 5-HT1A receptor, human 5-HT2A receptor, and human D2 receptor was measured by the following procedures.
(§3) Each mixture was incubated at room temperature for 60 minutes. Then, the mixture was added quickly on a glassfiber filter plate (Multiscreen FB, Millipore, Inc.) coated with 0.3% aqueous polyethylenimine, and vacuum-filtered. Radioactivity remaining on the filter was measured with a liquid scintillation counter (PerkinElmer, Inc.). Binding inhibition rate was calculated from the following formula.
(§4) Ki of each compound was calculated from the following formula. Binding inhibition constant (Ki)=IC50/(1+S/Kd) wherein S is concentration of ligand; Kd is a binding dissociation constant of ligand to membrane, which is calculated from a saturated binding experiment conducted with the same cell membrane. A small Ki value means strong binding ability to a receptor.

For data set [2], the target named is T1, human 5-HT1A receptor (Homo sapiens (Human), UniProt P08908). Kind of data set: Test 1: binding activity for human 5-HT1A receptor ([3H]8-OH-DPAT). Particulars: CHO cell membrane fraction. The procedure: as §1, §2, §3
T1 sequence (P08908 whole entry): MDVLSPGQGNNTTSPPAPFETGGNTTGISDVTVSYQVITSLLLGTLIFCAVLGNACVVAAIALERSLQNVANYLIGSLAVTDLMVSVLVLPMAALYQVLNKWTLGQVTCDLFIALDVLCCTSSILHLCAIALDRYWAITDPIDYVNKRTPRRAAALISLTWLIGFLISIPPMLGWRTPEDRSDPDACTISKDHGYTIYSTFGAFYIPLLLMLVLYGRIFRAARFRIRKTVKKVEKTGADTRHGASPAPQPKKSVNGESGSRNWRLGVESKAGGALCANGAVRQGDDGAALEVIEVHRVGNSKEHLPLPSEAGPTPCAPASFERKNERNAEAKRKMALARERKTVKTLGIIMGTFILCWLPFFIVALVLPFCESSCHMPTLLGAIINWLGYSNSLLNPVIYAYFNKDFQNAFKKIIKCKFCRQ
IC50 value was calculated by Hill analysis (Physiology, 1910, 40, 190-200). Ki of each compound was calculated from the following formula. Binding inhibition constant (Ki)=IC50/(1+S/Kd) wherein S is concentration of ligand; Kd is a binding dissociation constant of ligand to membrane, which is calculated from a saturated binding experiment conducted with the same cell membrane. A small Ki value means strong binding ability to a receptor.

For a further data set, the target named is hERG channel (Homo sapiens (Human), UniProt Q12809). Kind of data set: Test 6-1: inhibitory activity for hERG channel (auto patch clamp, Qpatch). The class given is cell-based. The conditions noted are these: for pIC50: hERG-CHO cells, whole cell patch clamp, Qpatch, read-out: hERG inhibition IC50. The procedure: Test 6-1: Evaluation of Inhibitory Activity for hERG Channel
hERG channel, sequence (Q12809 whole entry): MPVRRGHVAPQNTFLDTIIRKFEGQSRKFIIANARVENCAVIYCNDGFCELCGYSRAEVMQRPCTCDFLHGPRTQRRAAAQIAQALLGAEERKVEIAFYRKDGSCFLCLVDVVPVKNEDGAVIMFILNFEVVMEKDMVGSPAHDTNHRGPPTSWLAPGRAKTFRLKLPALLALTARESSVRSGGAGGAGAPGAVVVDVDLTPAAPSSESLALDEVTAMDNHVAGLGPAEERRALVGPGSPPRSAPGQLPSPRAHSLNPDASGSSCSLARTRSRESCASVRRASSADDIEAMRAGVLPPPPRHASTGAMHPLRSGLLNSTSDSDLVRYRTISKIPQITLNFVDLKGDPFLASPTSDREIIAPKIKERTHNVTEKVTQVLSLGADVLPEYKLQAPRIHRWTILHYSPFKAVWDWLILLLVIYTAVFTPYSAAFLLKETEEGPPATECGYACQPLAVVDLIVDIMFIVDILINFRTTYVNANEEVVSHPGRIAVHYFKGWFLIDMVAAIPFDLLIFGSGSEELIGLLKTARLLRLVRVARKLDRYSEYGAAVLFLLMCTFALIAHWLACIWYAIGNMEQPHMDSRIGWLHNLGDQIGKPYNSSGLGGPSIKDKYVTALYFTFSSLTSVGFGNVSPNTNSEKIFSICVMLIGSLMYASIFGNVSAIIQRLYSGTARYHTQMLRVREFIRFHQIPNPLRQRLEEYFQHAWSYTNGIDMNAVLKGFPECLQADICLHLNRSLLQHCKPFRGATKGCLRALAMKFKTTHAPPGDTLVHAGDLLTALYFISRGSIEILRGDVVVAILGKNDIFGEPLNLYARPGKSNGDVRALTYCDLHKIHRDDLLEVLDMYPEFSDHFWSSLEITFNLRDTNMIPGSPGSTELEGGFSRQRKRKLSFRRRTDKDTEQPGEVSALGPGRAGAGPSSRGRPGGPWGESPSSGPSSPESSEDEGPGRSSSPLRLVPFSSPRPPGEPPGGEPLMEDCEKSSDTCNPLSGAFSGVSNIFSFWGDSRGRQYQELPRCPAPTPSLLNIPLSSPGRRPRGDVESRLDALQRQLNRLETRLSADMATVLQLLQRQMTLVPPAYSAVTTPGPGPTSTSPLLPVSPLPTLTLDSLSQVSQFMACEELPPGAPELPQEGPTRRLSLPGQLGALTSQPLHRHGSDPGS
Inhibitory activity of the present compound for hERG channel was measured by whole cell patch clamp method with an auto patch clamp system using CHO cells in which hERG channel involved in human rapidly activating delayed rectifier potassium current (IKr) was forcibly expressed.
hERG-CHO cells purchased from ChanTest Cop. were cultured in a CO2 incubator at 37° C., and dissociated from a flask with trypsin shortly before the measurement of hERG current, to prepare a cell suspension.
Extracellular and intracellular fluid used in the measurement were prepared as follows.
Extracellular fluid: 2 mmol/L CaCl2, 1 mmol/L MgCl2, 10 mmol/L HEPES, 4 mmol/L KCl, 145 mmol/L NaCl, 10 mmol/L Glucose
Intracellular fluid: 5.4 mmol/L CaCl2, 1.8 mmol/L MgCl2, 10 mmol/L HEPES, 31 mmol/L KOH, 10 mmol/L EGTA, 120 mmol/L KCl, 4 mmol/L Na2-ATP
Test compound solution: Test compound was dissolved in DMSO to reach the concentration of 2 mmol/L or 20 mmol/L, in order to prepare a test compound solution. […] (Measurement of Current Value and Data Analysis)
The cell suspension, the extracellular fluid, the intracellular fluid, and the measurement plate were set in the auto patch clamp system, and hERG current was measured by whole cell patch clamp method. […] Each pulse interval was 15 seconds. The data analysis was carried out with Qpatch Assay Software (Biolin Scientific). The test was carried out by applying incrementally 4 concentrations of each test compound, and the average of the maximum peak tail currents which were obtained from the last 3 stimulations in each concentration was determined as the evaluated data. Based on the current inhibition rate for a pre-applied current at each concentration of each test compound, IC50 value was calculated by Hill equation with the software.

Data set [3] deals with T1, human 5-HT1A receptor. Kind of data set: Test 2: agonist activity for human 5-HT1A receptor ([35S]GTPγS binding). The class given is biochemical. On the procedure:
Test 2: Evaluation of Agonist Activity for Human 5-HT1A Receptor
CHO cell membrane fraction in which human 5-HT1A receptor was expressed as used in Test 1 was purchased. To a buffer containing guanosine diphosphate were added a test compound dissolved in DMSO, each receptor membrane sample diluted with buffer, and [^35S] Guanosine 5′-O-[gamma-thio]triphosphate (GTPγS). The mixture was incubated at room temperature for 60 minutes. Then, the mixture was added quickly on a glassfiber filter plate (Multiscreen FB, Millipore, Inc.), and vacuum-filtered. Radioactivity remaining on the […] was measured with a liquid scintillation counter. Agonist activity was calculated from the following formula.

Another data set deals with human 5-HT2A receptor (Homo sapiens (Human), UniProt P28223). Kind of data set: Test 1: binding activity for human 5-HT2A receptor ([3H]Ketanserin). Particulars: CHO cell membrane fraction. On the procedure:
as §1, §2, §3, §4

Setting [4] is: agonist activity in the presence of 10 μM compound, relative to 100 μmol/L 5-HT.

pEC50, pIC50, pKi: −log10 of the molar value. Where two headings read alike, the source gives them in different places.

human 5-HT2A receptor, sequence (P28223 whole entry): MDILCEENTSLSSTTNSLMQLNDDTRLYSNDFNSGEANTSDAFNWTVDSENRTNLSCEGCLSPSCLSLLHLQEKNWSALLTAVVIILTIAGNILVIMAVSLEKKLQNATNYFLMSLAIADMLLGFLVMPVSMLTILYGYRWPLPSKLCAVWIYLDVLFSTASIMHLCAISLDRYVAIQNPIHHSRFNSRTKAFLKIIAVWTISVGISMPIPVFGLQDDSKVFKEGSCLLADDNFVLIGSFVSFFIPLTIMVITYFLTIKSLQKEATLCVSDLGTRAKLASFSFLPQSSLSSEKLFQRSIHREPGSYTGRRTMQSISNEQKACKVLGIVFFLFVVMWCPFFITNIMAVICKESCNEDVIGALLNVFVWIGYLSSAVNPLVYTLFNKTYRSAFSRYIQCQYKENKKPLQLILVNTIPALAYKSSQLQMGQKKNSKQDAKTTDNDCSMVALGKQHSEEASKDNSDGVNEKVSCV
P-gp (MDR1), sequence (P08183 whole entry, species assumed): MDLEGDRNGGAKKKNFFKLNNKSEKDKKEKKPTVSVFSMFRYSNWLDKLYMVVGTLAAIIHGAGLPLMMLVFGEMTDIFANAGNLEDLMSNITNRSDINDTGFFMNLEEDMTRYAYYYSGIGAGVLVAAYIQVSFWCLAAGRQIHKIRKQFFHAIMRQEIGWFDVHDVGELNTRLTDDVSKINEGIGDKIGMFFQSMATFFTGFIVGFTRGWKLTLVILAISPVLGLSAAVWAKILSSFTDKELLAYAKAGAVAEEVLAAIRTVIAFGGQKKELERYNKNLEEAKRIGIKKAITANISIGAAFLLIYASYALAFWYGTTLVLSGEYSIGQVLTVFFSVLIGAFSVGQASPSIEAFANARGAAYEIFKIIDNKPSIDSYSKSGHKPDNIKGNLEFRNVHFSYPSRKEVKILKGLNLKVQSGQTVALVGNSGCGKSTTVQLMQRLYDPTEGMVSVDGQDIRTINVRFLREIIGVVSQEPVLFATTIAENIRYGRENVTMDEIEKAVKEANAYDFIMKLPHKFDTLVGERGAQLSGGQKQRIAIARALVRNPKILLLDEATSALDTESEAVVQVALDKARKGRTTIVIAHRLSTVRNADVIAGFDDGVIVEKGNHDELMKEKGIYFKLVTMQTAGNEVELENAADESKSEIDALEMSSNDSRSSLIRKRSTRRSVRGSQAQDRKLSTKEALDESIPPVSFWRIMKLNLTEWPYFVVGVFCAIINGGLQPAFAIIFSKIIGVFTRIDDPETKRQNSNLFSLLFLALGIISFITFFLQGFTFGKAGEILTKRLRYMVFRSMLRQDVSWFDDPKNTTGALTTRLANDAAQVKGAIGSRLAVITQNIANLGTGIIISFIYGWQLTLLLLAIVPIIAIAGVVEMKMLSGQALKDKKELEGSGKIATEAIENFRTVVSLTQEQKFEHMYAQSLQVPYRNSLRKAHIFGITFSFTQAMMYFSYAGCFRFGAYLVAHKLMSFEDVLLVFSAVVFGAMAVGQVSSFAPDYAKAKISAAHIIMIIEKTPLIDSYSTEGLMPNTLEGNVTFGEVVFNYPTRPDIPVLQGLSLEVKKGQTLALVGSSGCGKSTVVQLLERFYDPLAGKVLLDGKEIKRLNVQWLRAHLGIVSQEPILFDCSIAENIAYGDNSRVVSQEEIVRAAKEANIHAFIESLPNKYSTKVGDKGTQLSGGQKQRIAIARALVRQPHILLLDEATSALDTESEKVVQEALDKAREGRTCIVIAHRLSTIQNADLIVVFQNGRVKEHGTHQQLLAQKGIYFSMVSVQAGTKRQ

`Cn1cnc2c1CCN(CCN1CCN(c3nsc4ccccc34)CC1)C2=O` [Example 54]: the “Metabolic stability in human hepatic microsome” value (from here on “Metabolic stability”) in data set [1] is on record as less than 0.01 mL/min/mg protein. For the same compound, the “NFR (Net Flux Ratio)” value on P-gp (MDR1) came to 6.6.

Take `Cn1ccc2c1CCN(CCN1CCC(c3noc4ccccc34)CC1)C2=O` [Example 60]: in data set [1], the “Metabolic stability” value is given as 0.018 mL/min/mg protein. Moreover, the “NFR (Net Flux Ratio)” value at P-gp (MDR1) was 1.5. At human D2 receptor, the “D2 Ki/5-HT1A Ki” value is recorded as 19.

Consider `Cc1cc2c(cn1)C(=O)N(CCN1CCC(c3noc4ccccc34)CC1)CC21CC1` [Example 21], for which the pKi was 8.06 at human 5-HT1A receptor [2] and 5.67 at human D2 receptor. Further, in data set [1], the “Metabolic stability” value turned out to be 0.323 mL/min/mg protein. For the same compound, the pIC50 on hERG channel (human, CHO cells expressing hERG channel) is 5.10. Further, the Emax at 10 µM on human 5-HT1A receptor [3] (setting [4]) was 59%.

For the compound `O=C1c2nc(Cl)ccc2CCN1CCN1CCC(c2noc3ccccc23)CC1` [Example 146], the “Metabolic stability” value in data set [1] was less than 0.05 mL/min/mg protein. Also, at P-gp (MDR1), the “NFR (Net Flux Ratio)” value was 2.3.

For the compound `Cn1ncc2c1C(=O)N(CCN1CCN(c3nsc4ccccc34)CC1)CC2` [Example 59], on P-gp (MDR1), the “NFR (Net Flux Ratio)” value is given as 1.1. The “D2 Ki/5-HT1A Ki” value at human D2 receptor worked out at 63.

As to `Cc1ccc2c(C3CCN(CCn4ccc5cccnc5c4=O)CC3)noc2c1` [Example 118], on human 5-HT1A receptor [2], the pKi was 7.14. The Emax at 10 µM at human 5-HT1A receptor [3] (setting [4]) amounted to 5%. Also, at human D2 receptor, the pKi is 6.56, the “D2 Ki/5-HT1A Ki” value is on record as 3.8 and the “D2 Ki/5-HT2A Ki” value worked out at 27.6. The same compound gave a pKi at human 5-HT2A receptor of 8.00.

For the compound `Cn1nc(Br)c2c1CCN(CCN1CCN(c3nsc4ccccc34)CC1)C2=O` [Example 69], the pKi at human 5-HT1A receptor [2] was 7.98; on human D2 receptor, 6.44. In addition, the Emax at 10 µM at human 5-HT1A receptor [3] (setting [4]) was determined as 45%.

As to `COc1ncc2c(n1)CCN(CCN1CCN(c3noc4ccccc34)CC1)C2=O` [Example 179], at human 5-HT1A receptor [2], the pKi was 6.55. Moreover, in data set [1], the “Metabolic stability” value is less than 0.05 mL/min/mg protein. In addition, on hERG channel, the pIC50 was less than 5.00. For the same compound, the “hERG inhibition IC50 (nmol/L)/5-HT1A Ki (nmol/L)” value at hERG channel (ratio of hERG IC50 to 5-HT1A Ki) was more than 35. Moreover, the “hERG inhibition IC50 (nmol/L)/5-HT2A Ki (nmol/L)” value at hERG channel (ratio of hERG IC50 to 5-HT2A Ki) is listed as more than 438. Also, at human D2 receptor, the pKi is less than 5.00, the “D2 Ki/5-HT1A Ki” value was more than 35.3 and the “D2 Ki/5-HT2A Ki” value is reported as more than 437.6. On human 5-HT2A receptor, this compound had a pKi of 7.64.

`O=C1c2cnccc2CCN1CCN1CCC(c2noc3ccccc23)CC1` [Example 13]: the “Metabolic stability” value in data set [1] is recorded as less than 0.01 mL/min/mg protein. Besides, at human 5-HT1A receptor [3] (setting [4]), the maximal response (Emax) at 10 µM is 56%. This compound gave a negative logarithm of the Ki (pKi) on human 5-HT2A receptor of 8.08.

For the compound `COc1ccc2onc(C3CCN(CCN4CCc5cccnc5C4=O)CC3)c2c1` [Example 142], the “D2 Ki/5-HT2A Ki” value at human D2 receptor is reported as more than 61.0.

On to `Cc1cncc2c1CCN(CCN1CCN(c3noc4ccccc34)CC1)C2=O` [Example 137], for which the “Metabolic stability” value in data set [1] is given as less than 0.05 mL/min/mg protein. In addition, the “D2 Ki/5-HT1A Ki” value on human D2 receptor is recorded as 5.8.

Regarding `O=C1c2cnc(OC3COC3)cc2CCN1CCN1CCN(c2nsc3ccccc23)CC1` [Example 111, 2-{2-[4-(1,2-Benzoisothiazol-3-yl)piperazin-1-yl]ethyl}-6-[(oxetan-3-yl)oxy]-3,4-dihydro-2,7-naphthyridin-1(2H)-one], the “D2 Ki/5-HT2A Ki” value at human D2 receptor amounted to 530.

As to `Cn1ncc2c1C(=O)N(CCN1CCC(c3noc4ccccc34)CC1)CC2` [Example 96, 6-{2-[4-(1,2-Benzoisoxazol-3-yl)piperidin-1-yl]ethyl}-1-methyl-1,4,5,6-tetrahydro-7H-pyrazolo[3,4-c]pyridin-7-one], in data set [1], the “Metabolic stability” value stood at 0.019 mL/min/mg protein. Besides, at human D2 receptor, the “D2 Ki/5-HT1A Ki” value is 9 and the “D2 Ki/5-HT2A Ki” value stood at 14.

As for `COc1ccc2c(n1)C(=O)N(CCN1CCN(c3noc4ccccc34)CC1)CC2` [Example 186], the values for the pKi on human 5-HT1A receptor [2] and at human D2 receptor were 7.78 and 5.89, respectively. Besides, the “Metabolic stability” value in data set [1] is 0.095 mL/min/mg protein. The pIC50 at hERG channel is 5.70. The same compound gave a pEC50 on human 5-HT1A receptor [3] ([35S]GTPγS binding, CHO cell membrane fraction expressing human 5-HT1A receptor) of 7.01. Besides, the Emax at 10 µM on human 5-HT1A receptor [3] (setting [4]) was 39%.

In the case of `COc1cc2c(cn1)C(=O)N(CCN1CCC(c3noc4ccccc34)CC1)CC2` [Example 20], the pKi was 9.11 at human 5-HT1A receptor [2] and 5.72 at human D2 receptor. Also, the “Metabolic stability” value in data set [1] turned out to be 0.091 mL/min/mg protein. Also, the “5-HT1A agonist activity Emax” value on human 5-HT1A receptor [3] (setting [4]) came out at 52%.

For `CCc1ccc2c(n1)C(=O)N(CCN1CCC(c3noc4ccccc34)CC1)CC2` [Example 185], the “Metabolic stability” value in data set [1] was less than 0.05 mL/min/mg protein. Also, at P-gp (MDR1), the “NFR (Net Flux Ratio)” value is 2.4.
